In patent US20230357313A1, “SERUM RESISTANT BIS-SULFHYDRYL SPECIFIC BIOTINYLATION REAGENT” (Miltenyi Biotec B.V. & Co. KG, priority 2022, published 2023):

Target: T1, biotinidase (Homo sapiens, UniProt P43251)
T1 construct: from tissue
T1 sequence (P43251 22-523): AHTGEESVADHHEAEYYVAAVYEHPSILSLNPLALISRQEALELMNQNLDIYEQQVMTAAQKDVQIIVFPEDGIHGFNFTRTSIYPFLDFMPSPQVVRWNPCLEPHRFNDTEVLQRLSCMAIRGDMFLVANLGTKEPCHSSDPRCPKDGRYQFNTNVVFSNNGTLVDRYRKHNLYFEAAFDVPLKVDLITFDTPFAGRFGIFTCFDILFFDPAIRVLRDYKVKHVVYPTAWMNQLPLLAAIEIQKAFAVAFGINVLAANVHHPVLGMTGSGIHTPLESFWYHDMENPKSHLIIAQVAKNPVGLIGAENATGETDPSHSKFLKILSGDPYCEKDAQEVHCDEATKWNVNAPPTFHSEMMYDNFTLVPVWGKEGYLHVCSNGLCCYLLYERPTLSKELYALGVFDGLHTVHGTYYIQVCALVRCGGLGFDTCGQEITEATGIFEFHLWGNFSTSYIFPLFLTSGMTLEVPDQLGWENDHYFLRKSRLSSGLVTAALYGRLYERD
Experiment: Biotinidase inhibitor experiment: MS9 anti-CD33 Fab in human serum with or without inhibitor, LC-MS
Format: biochemical
Settings: 1 mM in human serum, 4 h at 37° C.
Description: To verify that biotinidase, an enzyme found in the human body amongst other in human serum, causes the cleavage of the biotinamide bond an experiment was performed with a biotinidase inhibitor ((+) Biotin 4 Amidobenzoic Acid, Cayman, CAS. 102418-74-6). Therefore (+) Biotin 4 Amidobenzoic Acid was added at a concentration of 1 mM into the pre-incubation mix containing the human serum. As control no inhibitor was added. The anti-CD33 Fab with MS9 was pre-incubated for 4 hours at 37° C. Subsequently after the incubation the samples were purified via an IgG-CHI Affinity matrix as previously described.
FIG. 5A and FIG. 5B show biotinidase as causative agent for instability of linker in non-heat inactivated serum. Biotinylated (MS9) anti-CD33 FAbs were incubated in freshly prepared human serum for 4 h at 37° C. in the presence (left panel) or absence (right panel) of 1 mM Biotin 4-amidobenzoic acid.

## O=C(CCCC[C@@H]1SC[C@@H]2NC(=O)N[C@@H]21)Nc1ccc(C(=O)[O-])cc1.[Na+] [Biotin 4-amidobenzoic acid, (+) Biotin 4 Amidobenzoic Acid]
  effect of biotinidase inhibitor on biotinamide bond degradation: protects the biotinamide bond from degradation
